Data set [1] is described as follows: Volume of distribution at steady state in Sprague-Dawley rat at 3 mg/kg, iv by LC-MS/MS analysis. It counts as ADME, organism-based. As to conditions: in vivo, read-out: Vdss.
The test system of data set [2] is MCF7. The experiment in a line: Induction of apoptosis in human MCF7 cells assessed as necrotic cells at 1 uM incubated for 48 hrs by Annexin-V-FITC/PI staining based flow cytometric analysis (reference value: 0.18 %). It counts as functional. For orientation: A flow cytometer gives signals particle by particle.
Data set [3] relates to MCF7. The data set is described as follows: Induction of cell cycle arrest in human MCF7 cells assessed as less G1 phase cells at 0.25 uM measured after 48 hrs by flow cytometry analysis (reference value: 0.44 %). It counts as functional.
A short description of data set [4]: Cmax in Sprague-Dawley rat at 10 mg/kg, po by LC-MS/MS analysis. Type of data set: ADME, organism-based. Also noted: dose 10 mg/kg, route po. Particulars: in vivo.
Data set [5] has as its system MCF7. The data set is described as follows: Induction of apoptosis in human MCF7 cells assessed as necrotic cells at 2.5 uM incubated for 48 hrs by Annexin-V-FITC/PI staining based flow cytometric analysis (reference value: 0.18 %). It counts as functional.
In data set [6] the test system is MCF7. The data set is described as follows: Induction of apoptosis in human MCF7 cells assessed as early apoptotic cells at 0.50 uM incubated for 48 hrs by Annexin-V-FITC/PI staining based flow cytometric analysis (reference value: 2.83 %). It counts as functional. Particulars: dose 0.5 µM.
The subject of data set [7] is MCF7. The data set is described as follows: Induction of cell cycle arrest in human MCF7 cells assessed as decrease in G1 phase cells at 0.25 uM measured after 48 hrs by flow cytometry analysis (reference value: 56.9 %). Type of data set: functional. Also noted: scale not given: the % may be the effect or the level left.
The test system of data set [8] is MCF7. The data set is described as follows: Induction of cell cycle arrest in human MCF7 cells assessed as S phase cells at 0.25 uM measured after 48 hrs by flow cytometry analysis (reference value: 9.31 %). Type of data set: functional.
In data set [9] the test system is MCF7. The experiment in a line: Induction of cell cycle arrest in human MCF7 cells assessed as less G1 phase cells at 1 uM measured after 48 hrs by flow cytometry analysis (reference value: 0.44 %). It counts as functional.
Data set [10] relates to MCF7. The experiment in a line: Induction of cell cycle arrest in human MCF7 cells assessed as decrease in G1 phase cells at 2.5 uM measured after 48 hrs by flow cytometry analysis (reference value: 56.9 %). It counts as functional. Also noted: scale not given: the % may be the effect or the level left.
For data set [11], the system named is MCF7. The experiment in a line: Induction of apoptosis in human MCF7 cells assessed as early apoptotic cells at 1 uM incubated for 48 hrs by Annexin-V-FITC/PI staining based flow cytometric analysis (reference value: 2.83 %). Type of data set: functional.
Data set [12] can be described thus: AUClast in Sprague-Dawley rat at 10 mg/kg, po by LC-MS/MS analysis. Type of data set: ADME, organism-based. Also noted: time 0 - last, dose 10 mg/kg, route po. As to conditions: in vivo.
Data set [13] can be described thus: Plasma stability in human assessed as compound remaining at 100 uM measured after 60 mins by LC-MS/MS analysis relative to control. Type of data set: ADME, cell-free. As to conditions: read-out: Stability.
A short description of data set [14]: Metabolic stability in human liver microsomes assessed as intrinsic clearance at 100 uM measured upto 60 mins in the presence of NADPH by LC-MS/MS analysis. Particulars: 1 h. Type of data set: ADME, Microsome. (Microsomes from liver hold many membrane-bound enzymes, among them those of drug oxidation.)
In data set [15] the test system is MCF7. The data set is described as follows: Induction of cell cycle arrest in human MCF7 cells assessed as G2 phase cells at 0.50 uM measured after 48 hrs by flow cytometry analysis (reference value: 31.8 %). It counts as functional. Particulars: dose 0.5 µM.

Consider `Cc1cc(Nc2nc(NCc3ccc(F)cc3F)nc3c2cnn3C2CCOCC2)n[nH]1`, for which, in data set [1], the Vd came out at 3.02 L/kg. Moreover, the Activity is 0.69% in the data set on MCF7 [2]; 8.49% in the data set with MCF7 [3]; 0.98% in the data set with MCF7 [5]; 59.7% with MCF7 [6]; 43.6% in the data set on MCF7 [7]; 10.67% in the data set on MCF7 [8]. The Activity stood at 0.37% in the data set with MCF7 [9], 9.8% in the data set on MCF7 [10], 65% with MCF7 [11] and 44.6% in the data set with MCF7 [15]. For the same compound, the Cmax (commonly the highest concentration seen after dosing) in [4] was found to be 81.1 ng/mL. In addition, the AUC(0-t) (as a rule, the area under the concentration-time curve up to a stated or last time point) in data set [12] was 286 ng·h/mL. In addition, in data set [13], the remaining at 1 h, 100 µM turned out to be 99.2%. Moreover, the CLint in data set [14] worked out at 46.8 µL/min/mg.

These data come from ChEMBL document CHEMBL5113403, “Design, synthesis, and biological evaluation of novel pyrazolo [3,4-d]pyrimidine derivatives as potent PLK4 inhibitors for the treatment of TRIM37-amplified breast cancer” (Eur J Med Chem, 2022).
